Experimental data published in ChEMBL document CHEMBL1275354, “Anticonvulsant activity of 2,4(1H)-diarylimidazoles in mice and rats acute seizure models” (Bioorg Med Chem, 2010).
Active and inactive are the calls of the source. The rule behind the calls is not given here.

Key:
Mus musculus [1] = test: Neurotoxicity in ip dosed albino CF1 mouse assessed as minimum dose required to cause toxicity after 0.5 hrs by rotarod test; type: organism-based; details: in vivo
Mus musculus [2] = test: Neurotoxicity in albino CF1 mouse assessed as minimal motor impairment at 30 mg/kg, ip after 0.5 hrs by rotarod test; type: toxicity, organism-based; parameters: dose 30 mg/kg, route intraperitoneal; details: in vivo
Mus musculus [3] = test: Anticonvulsant activity in albino CF1 mouse assessed as protection against maximal electroshock-induced seizures at 100 mg/kg, ip after 0.5 hrs; type: functional, organism-based; parameters: dose 100 mg/kg
Mus musculus [4] = test: Anticonvulsant activity against subcutaneous metrazole-induced seizures in ip dosed albino CF1 mouse assessed as minimum effective dose after 4 hrs; type: functional; details: albino CF1, 4 h, read-out: MED
Rattus norvegicus [5] = test: Neurotoxicity in albino Sprague-Dawley rat assessed as minimal motor impairment at 30 mg/kg, po by rotarod test; type: toxicity, organism-based; parameters: dose 30 mg/kg, route oral; details: in vivo
Rattus norvegicus [6] = test: Anticonvulsant activity in albino Sprague-Dawley rat assessed as protection against maximal electroshock-induced seizures at 30 mg/kg, po after 0.25 hrs; type: functional, organism-based; parameters: dose 30 mg/kg
Rattus norvegicus [7] = test: Anticonvulsant activity in albino Sprague-Dawley rat assessed as protection against maximal electroshock-induced seizures at 30 mg/kg, po after 0.5 hrs; type: functional, organism-based; parameters: dose 30 mg/kg
Rattus norvegicus [8] = test: Anticonvulsant activity in albino Sprague-Dawley rat assessed as protection against maximal electroshock-induced seizures at 30 mg/kg, po after 1 hr; type: functional, organism-based; parameters: dose 30 mg/kg
Rattus norvegicus [9] = test: Anticonvulsant activity in albino Sprague-Dawley rat assessed as protection against maximal electroshock-induced seizures at 30 mg/kg, po after 2 hrs; type: functional, organism-based; parameters: dose 30 mg/kg
Rattus norvegicus [10] = test: Anticonvulsant activity in albino Sprague-Dawley rat assessed as protection against maximal electroshock-induced seizures at 30 mg/kg, po after 4 hrs; type: functional, organism-based; parameters: dose 30 mg/kg
Mus musculus [11] = test: Neurotoxicity in albino CF1 mouse assessed as minimal motor impairment at 30 mg/kg, ip after 4 hrs by rotarod test; type: toxicity, organism-based; parameters: dose 30 mg/kg, route intraperitoneal; details: in vivo
Mus musculus [12] = test: Neurotoxicity in albino CF1 mouse assessed as minimal motor impairment at 100 mg/kg, ip after 4 hrs by rotarod test; type: toxicity, organism-based; parameters: dose 100 mg/kg, route intraperitoneal; details: in vivo
Mus musculus [13] = test: Anticonvulsant activity in albino CF1 mouse assessed as protection against maximal electroshock-induced seizures at 100 mg/kg, ip after 4 hrs; type: functional, organism-based; parameters: dose 100 mg/kg
Mus musculus [14] = test: Anticonvulsant activity in albino CF1 mouse assessed as protection against maximal electroshock-induced seizures at 300 mg/kg, ip after 0.5 hrs; type: functional, organism-based; parameters: dose 300 mg/kg
Mus musculus [15] = test: Anticonvulsant activity in albino CF1 mouse assessed as protection against maximal electroshock-induced seizures at 300 mg/kg, ip after 4 hrs; type: functional, organism-based; parameters: dose 300 mg/kg
Mus musculus [16] = test: Anticonvulsant activity in albino CF1 mouse assessed as protection against subcutaneous metrazole-induced seizures at 30 mg/kg, ip after 0.5 hrs; type: functional, organism-based; parameters: dose 30 mg/kg
Mus musculus [17] = test: Anticonvulsant activity in albino CF1 mouse assessed as protection against subcutaneous metrazole-induced seizures at 30 mg/kg, ip after 4 hrs; type: functional, organism-based; parameters: dose 30 mg/kg
Mus musculus [18] = test: Anticonvulsant activity in albino CF1 mouse assessed as protection against subcutaneous metrazole-induced seizures at 100 mg/kg, ip after 0.5 hrs; type: functional, organism-based; parameters: dose 100 mg/kg
Mus musculus [19] = test: Anticonvulsant activity in albino CF1 mouse assessed as protection against subcutaneous metrazole-induced seizures at 100 mg/kg, ip after 4 hrs; type: functional, organism-based; parameters: dose 100 mg/kg
Mus musculus [20] = test: Anticonvulsant activity in albino CF1 mouse assessed as protection against subcutaneous metrazole-induced seizures at 300 mg/kg, ip after 0.5 hrs; type: functional, organism-based; parameters: dose 300 mg/kg
Mus musculus [21] = test: Anticonvulsant activity in albino CF1 mouse assessed as protection against subcutaneous metrazole-induced seizures at 300 mg/kg, ip after 4 hrs; type: functional, organism-based; parameters: dose 300 mg/kg
Mus musculus [22] = test: Anticonvulsant activity in albino CF1 mouse assessed as protection against maximal electroshock-induced seizures at 30 mg/kg, ip after 0.5 hrs; type: functional, organism-based; parameters: dose 30 mg/kg
Mus musculus [23] = test: Anticonvulsant activity in albino CF1 mouse assessed as protection against maximal electroshock-induced seizures at 30 mg/kg, ip after 4 hrs; type: functional, organism-based; parameters: dose 30 mg/kg
Mus musculus [24] = test: Neurotoxicity in ip dosed albino CF1 mouse assessed as minimum dose required to cause toxicity after 4 hrs by rotarod test; type: organism-based; details: in vivo
Mus musculus [25] = test: Anticonvulsant activity against maximal electroshock-induced seizures in ip dosed albino CF1 mouse assessed as minimum effective dose after 0.5 hrs; type: functional; details: read-out: MED
Mus musculus [26] = test: Anticonvulsant activity against maximal electroshock-induced seizures in ip dosed albino CF1 mouse assessed as minimum effective dose after 4 hrs; type: functional; details: read-out: MED
Mus musculus [27] = test: Anticonvulsant activity against subcutaneous metrazole-induced seizures in ip dosed albino CF1 mouse assessed as minimum effective dose after 0.5 hrs; type: functional; details: albino CF1, 0.5 h, read-out: MED
Mus musculus [28] = test: Neurotoxicity in albino CF1 mouse assessed as minimal motor impairment at 30 to 300 mg/kg, ip after 0.5 hrs by rotarod test; details: in vivo
Mus musculus [29] = test: Neurotoxicity in albino CF1 mouse assessed as minimal motor impairment at 100 mg/kg, ip after 0.5 hrs by rotarod test; type: toxicity, organism-based; parameters: dose 100 mg/kg, route intraperitoneal; details: in vivo
Mus musculus [30] = test: Neurotoxicity in albino CF1 mouse assessed as minimal motor impairment at 300 mg/kg, ip after 0.5 hrs by rotarod test; type: toxicity, organism-based; parameters: dose 300 mg/kg, route intraperitoneal; details: in vivo
Mus musculus [31] = test: Neurotoxicity in albino CF1 mouse assessed as minimal motor impairment at 300 mg/kg, ip after 4 hrs by rotarod test; type: toxicity, organism-based; parameters: dose 300 mg/kg, route intraperitoneal; details: in vivo
Mus musculus [32] = test: Neurotoxicity in albino CF1 mouse assessed as minimal motor impairment at 30 to 300 mg/kg, po after 4 hrs by rotarod test; type: toxicity, organism-based; parameters: dose 30-300 mg/kg, route oral; details: in vivo

c1ccc(-c2c[nH]c(-c3cccnc3)n2)cc1
MED (Mus musculus [1]): 100 mg/kg
Activity (Mus musculus [2]): Non-toxic
Activity (Mus musculus [3]): Active
minimal effective dose (Mus musculus [4]): > 300 mg/kg
Activity (Rattus norvegicus [5]): Non-toxic
Activity (Rattus norvegicus [6]): inactive
Activity (Rattus norvegicus [7]): inactive
Activity (Rattus norvegicus [8]): inactive
Activity (Rattus norvegicus [9]): inactive
Activity (Rattus norvegicus [10]): inactive
Activity (Mus musculus [11]): Non-toxic
Activity (Mus musculus [12]): Non-toxic
Activity (Mus musculus [13]): inactive
Activity (Mus musculus [14]): Active
Activity (Mus musculus [15]): Active
Activity (Mus musculus [16]): inactive
Activity (Mus musculus [17]): inactive
Activity (Mus musculus [18]): Active
Activity (Mus musculus [19]): inactive
Activity (Mus musculus [20]): Active
Activity (Mus musculus [21]): inactive
Activity (Mus musculus [22]): inactive
Activity (Mus musculus [23]): inactive
MED (Mus musculus [24]): 100 mg/kg
minimal effective dose (Mus musculus [25]): 100 mg/kg
minimal effective dose (Mus musculus [26]): 100 mg/kg
minimal effective dose (Mus musculus [27]): 100 mg/kg
Activity (Mus musculus [28]): Non-toxic

FC(F)(F)c1cccc(-c2c[nH]c(-c3ccc(Cl)cc3)n2)c1
MED (Mus musculus [1]): > 300 mg/kg
Activity (Mus musculus [2]): Non-toxic
Activity (Mus musculus [3]): inactive
minimal effective dose (Mus musculus [4]): > 300 mg/kg
Activity (Mus musculus [11]): Non-toxic
Activity (Mus musculus [29]): Non-toxic
Activity (Mus musculus [12]): Non-toxic
Activity (Mus musculus [30]): Non-toxic
Activity (Mus musculus [31]): Non-toxic
Activity (Mus musculus [13]): inactive
Activity (Mus musculus [14]): inactive
Activity (Mus musculus [15]): inactive
Activity (Mus musculus [16]): inactive
Activity (Mus musculus [17]): inactive
Activity (Mus musculus [18]): inactive
Activity (Mus musculus [19]): inactive
Activity (Mus musculus [20]): inactive
Activity (Mus musculus [21]): inactive
Activity (Mus musculus [32]): Non-toxic
Activity (Mus musculus [22]): inactive
Activity (Mus musculus [23]): inactive
MED (Mus musculus [24]): > 300 mg/kg
minimal effective dose (Mus musculus [25]): > 300 mg/kg
minimal effective dose (Mus musculus [26]): > 300 mg/kg
minimal effective dose (Mus musculus [27]): > 300 mg/kg
Activity (Mus musculus [28]): Non-toxic

COc1cccc(-c2c[nH]c(-c3ccccc3)n2)c1
MED (Mus musculus [1]): 100 mg/kg
Activity (Mus musculus [2]): Non-toxic
Activity (Mus musculus [3]): Active
minimal effective dose (Mus musculus [4]): > 300 mg/kg
Activity (Rattus norvegicus [5]): Non-toxic
Activity (Rattus norvegicus [6]): inactive
Activity (Rattus norvegicus [7]): inactive
Activity (Rattus norvegicus [8]): inactive
Activity (Rattus norvegicus [9]): inactive
Activity (Rattus norvegicus [10]): inactive
Activity (Mus musculus [11]): Non-toxic
Activity (Mus musculus [12]): Non-toxic
Activity (Mus musculus [31]): Non-toxic
Activity (Mus musculus [14]): Active
Activity (Mus musculus [15]): inactive
Activity (Mus musculus [16]): inactive
Activity (Mus musculus [17]): inactive
Activity (Mus musculus [18]): inactive
Activity (Mus musculus [19]): inactive
Activity (Mus musculus [20]): inactive
Activity (Mus musculus [21]): inactive
Activity (Mus musculus [32]): Non-toxic
Activity (Mus musculus [22]): inactive
Activity (Mus musculus [23]): inactive
MED (Mus musculus [24]): > 300 mg/kg
minimal effective dose (Mus musculus [25]): > 30 mg/kg
minimal effective dose (Mus musculus [26]): > 300 mg/kg
minimal effective dose (Mus musculus [27]): > 300 mg/kg
Activity (Mus musculus [28]): Non-toxic

FC(F)(F)c1cccc(-c2c[nH]c(-c3cccc(C(F)(F)F)c3)n2)c1
MED (Mus musculus [1]): > 300 mg/kg
Activity (Mus musculus [2]): Non-toxic
Activity (Mus musculus [3]): inactive
minimal effective dose (Mus musculus [4]): > 300 mg/kg
Activity (Mus musculus [11]): Non-toxic
Activity (Mus musculus [29]): Non-toxic
Activity (Mus musculus [12]): Non-toxic
Activity (Mus musculus [30]): Non-toxic
Activity (Mus musculus [31]): Non-toxic
Activity (Mus musculus [14]): inactive
Activity (Mus musculus [15]): Active
Activity (Mus musculus [16]): inactive
Activity (Mus musculus [17]): inactive
Activity (Mus musculus [18]): inactive
Activity (Mus musculus [19]): inactive
Activity (Mus musculus [20]): inactive
Activity (Mus musculus [21]): inactive
Activity (Mus musculus [32]): Non-toxic
Activity (Mus musculus [23]): inactive
MED (Mus musculus [24]): > 300 mg/kg
minimal effective dose (Mus musculus [25]): > 300 mg/kg
minimal effective dose (Mus musculus [26]): 100 mg/kg
minimal effective dose (Mus musculus [27]): > 300 mg/kg
Activity (Mus musculus [28]): Non-toxic
